≈ marks a conversion by molar mass, not a printed value. Where two headings read alike, the source gives them in different places.

Experiment [1] concerns EAEC strains. Put plainly: Antibiotic susceptibility testing. Also: key: S- Sensitive; I- Intermediate; R- Resistant. Format: cell-based, enteroaggregative Escherichia coli. From the text: Supplement 13099_2021_443_MOESM1_ESM.docx, table 1: Supplementary Table 1. Antibiotic susceptibility pattern of EAEC and NTS strains under study | column: Antibiotic Susceptibility testing
The subject of experiment [2] is Salmonella Enteritidis strains. Format: cell-based.
The test system of experiment [3] is Salmonella Typhimurium strains. The format is cell-based. Also: key: S- Sensitive; I- Intermediate; R- Resistant.
Experiment [4] has as its system EAEC strains. The experiment in a line: MIC values of antibiotics. The format is cell-based, enteroaggregative Escherichia coli.
For Antibiotic susceptibility testing in this document: key: S- Sensitive; I- Intermediate; R- Resistant.

Take `CN(C)[C@@H]1C(O)=C(C(N)=O)C(=O)[C@@]2(O)C(O)=C3C(=O)c4c(O)cccc4[C@@](C)(O)[C@H]3C[C@@H]12` [TE]: the “Antibiotic Susceptibility testing” value in the experiment on EAEC strains [1] (strain E1) is given as “R”; in the experiment with EAEC strains [1] (strain E2), “R”; with EAEC strains [1] (strain E3), “R”; in experiment [2] (strain S1), “R”; in experiment [2] (strain S2), “S”; in experiment [2] (strain S3), “S”. The “Antibiotic Susceptibility testing” value in experiment [3] (strain ST1), in experiment [3] (strain ST2) and in experiment [3] (strain ST3) was “R” each time. Also, the MIC came out at 60 µM (≈ 26.7 µg/mL) with EAEC strains [4] (strain E1), 2 µM (≈ 0.889 µg/mL) in the experiment with EAEC strains [4] (strain E2) and 30 µM (≈ 13.3 µg/mL) against EAEC strains [4] (strain E3).
On to `CO[C@@]1(NC(=O)Cc2cccs2)C(=O)N2C(C(=O)O)=C(COC(N)=O)CS[C@@H]21` [CX], for which the “Antibiotic Susceptibility testing” value in experiment [2] is “S”; in experiment [3] it was “S and R and I”.
Regarding `C[C@@H](O)[C@H]1C(=O)N2C(C(=O)O)=C(SCCN=CN)C[C@H]12` [IPM], the “Antibiotic Susceptibility testing” value in experiment [3] (strain ST1), in experiment [3] (strain ST2) and in experiment [3] (strain ST3) was “S” throughout.
`O=C1CN(/N=C/c2ccc([N+](=O)[O-])o2)C(=O)N1` [NIT, Nitrofurantoin]: the “Antibiotic Susceptibility testing” value in experiment [2] is “S and R”.
With `C[C@H]1COc2c(N3CCN(C)CC3)c(F)cc3c(=O)c(C(=O)O)cn1c23` [LE, Levofloxacin], the “Antibiotic Susceptibility testing” value is given as “R” in experiment [3] (strain ST1), “R” in experiment [3] (strain ST2) and “I” in experiment [3] (strain ST3).
`NC[C@H]1O[C@H](O[C@H]2[C@H](O)[C@@H](O[C@H]3O[C@H](CO)[C@@H](O)[C@H](N)[C@H]3O)[C@H](N)C[C@@H]2N)[C@H](O)[C@@H](O)[C@@H]1O` [K, Kanamycin]: the “Antibiotic Susceptibility testing” value in experiment [2] (strain S1) was “R”; in experiment [2] (strain S2), “S”; in experiment [2] (strain S3), “S”.
On to `O=C(O)c1cn(C2CC2)c2cc(N3CCNCC3)c(F)cc2c1=O` [CIP], for which the “Antibiotic Susceptibility testing” value with EAEC strains [1] (strain E1) is listed as “S”; with EAEC strains [1] (strain E2) it was “R”; in the experiment with EAEC strains [1] (strain E3) it was “R”; in experiment [3] (strain ST1) it was “R”; in experiment [3] (strain ST2) it was “R”; in experiment [3] (strain ST3), “R”. In addition, the figures for the MIC with EAEC strains [4] (strain E2) and with EAEC strains [4] (strain E3) were 120 µM (≈ 39.8 µg/mL) and 60 µM (≈ 19.9 µg/mL), respectively.
Consider `C[C@H]1[C@H](NC(=O)/C(=N\OC(C)(C)C(=O)O)c2csc(N)n2)C(=O)N1S(=O)(=O)O` [AT, Aztreonam], for which the “Antibiotic Susceptibility testing” value in experiment [2] (strain S1), in experiment [2] (strain S2) and in experiment [2] (strain S3) was “S” each time.
On to `Cc1nnc(SCC2=C(C(=O)O)N3C(=O)[C@@H](NC(=O)Cn4cnnn4)[C@H]3SC2)s1` [CZ], for which the “Antibiotic Susceptibility testing” value in experiment [3] (strain ST1), in experiment [3] (strain ST2) and in experiment [3] (strain ST3) was “S” throughout.
`Cc1noc(NS(=O)(=O)c2ccc(N)cc2)c1C` [SF, Sulphafurazole]: the “Antibiotic Susceptibility testing” value is “S” in experiment [2] (strain S1), “R” in experiment [2] (strain S2) and “S” in experiment [2] (strain S3).
Consider `C[C@@H](O)[C@H]1C(=O)N2C(C(=O)O)=C(S[C@@H]3CN[C@H](C(=O)N(C)C)C3)[C@H](C)[C@H]12` [MRP, Meropenem], for which the “Antibiotic Susceptibility testing” value in experiment [2] (strain S1), in experiment [2] (strain S2) and in experiment [2] (strain S3) was “S” in each case.
As to Colistin sulphate, the “Antibiotic Susceptibility testing” value in the experiment with EAEC strains [1] (strain E1), in the experiment on EAEC strains [1] (strain E2) and in the experiment with EAEC strains [1] (strain E3) was “S” each time. The “MIC Values, class symbol printed instead of a number” value (“MIC Values” for short) with EAEC strains [4] (strain E1), with EAEC strains [4] (strain E2) and against EAEC strains [4] (strain E3) was “S” throughout.
As for `CC[C@H]1OC(=O)[C@H](C)[C@@H](O[C@H]2C[C@@](C)(OC)[C@@H](O)[C@H](C)O2)[C@H](C)[C@@H](O[C@@H]2O[C@H](C)C[C@H](N(C)C)[C@H]2O)[C@](C)(O)C[C@@H](C)CN(C)[C@H](C)[C@@H](O)[C@]1(C)O` [AZM, Azithromycin], the “Antibiotic Susceptibility testing” value in experiment [2] is listed as “S”.
On to `COCC1=C(C(=O)O)N2C(=O)[C@@H](NC(=O)/C(=N\OC)c3csc(N)n3)[C@H]2SC1` [CPD, Cefpodoxime], for which the “Antibiotic Susceptibility testing” value in experiment [2] (strain S1), in experiment [2] (strain S2) and in experiment [2] (strain S3) was “R” each time.
On to `CC(C)(O/N=C(\C(=O)N[C@@H]1C(=O)N2C(C(=O)[O-])=C(C[n+]3ccccc3)CS[C@H]12)c1csc(N)n1)C(=O)O` [CAZ], for which the figures for the “Antibiotic Susceptibility testing” value in experiment [3] (strain ST1), in experiment [3] (strain ST2) and in experiment [3] (strain ST3) were “S”, “R” and “I”, respectively.
As to `CCN1CCN(C(=O)N[C@@H](C(=O)N[C@@H]2C(=O)N3C(C(=O)O)=C(CSc4nnnn4C)CS[C@H]23)c2ccc(O)cc2)C(=O)C1=O` [CPZ, Cefoperozone], the “Antibiotic Susceptibility testing” value in experiment [2] (strain S1), in experiment [2] (strain S2) and in experiment [2] (strain S3) was “S” each time.
As to `CO/N=C(\C(=O)N[C@@H]1C(=O)N2C(C(=O)O)=C(COC(C)=O)CS[C@H]12)c1csc(N)n1` [CTR, Cefotaxime], the “Antibiotic Susceptibility testing” value in the experiment with EAEC strains [1] (strain E1) was “S”; with EAEC strains [1] (strain E2) it was “R”; in the experiment with EAEC strains [1] (strain E3) it was “R”; in experiment [3] (strain ST1) it was “S”; in experiment [3] (strain ST2), “R”; in experiment [3] (strain ST3), “S”. The MIC against EAEC strains [4] (Escherichia coli, strain E2) is over 240 µM; in the experiment with EAEC strains [4] (strain E3) it was over 240 µM. Moreover, in the experiment with EAEC strains [4] (strain E1), the “MIC Values” value was “S”.
For `CO/N=C(\C(=O)N[C@@H]1C(=O)N2C(C(=O)O)=C(COC(C)=O)CS[C@H]12)c1csc(N)n1` [CTX], the “Antibiotic Susceptibility testing” value in experiment [2] (strain S1), in experiment [2] (strain S2) and in experiment [2] (strain S3) was “S” in each case.
Turning to `O=C(N[C@H](CO)[C@H](O)c1ccc([N+](=O)[O-])cc1)C(Cl)Cl` [C, Chloramphenicol], the “Antibiotic Susceptibility testing” value in the experiment on EAEC strains [1] (strain E1) is “S”; in the experiment on EAEC strains [1] (strain E2), “S”; in the experiment with EAEC strains [1] (strain E3), “S”; in experiment [2] (strain S1), “R”; in experiment [2] (strain S2), “S”; in experiment [2] (strain S3), “S”. For the same compound, the “Antibiotic Susceptibility testing” value in experiment [3] (strain ST1), in experiment [3] (strain ST2) and in experiment [3] (strain ST3) was “R” each time. For the same compound, the “MIC Values” value in the experiment with EAEC strains [4] (strain E1), against EAEC strains [4] (strain E2) and in the experiment with EAEC strains [4] (strain E3) was “S” in each case.
As for `C[C@@H](O)[C@H]1C(=O)N2C(C(=O)O)=C(SCCN=CN)C[C@H]12` [IMI, Imipenem], the “Antibiotic Susceptibility testing” value with EAEC strains [1] (strain E1), in the experiment with EAEC strains [1] (strain E2) and with EAEC strains [1] (strain E3) was “S” throughout. Besides, the “MIC Values” value in the experiment on EAEC strains [4] (strain E1), with EAEC strains [4] (strain E2) and with EAEC strains [4] (strain E3) was “S” throughout.
As for `CCn1cc(C(=O)O)c(=O)c2ccc(C)nc21` [NA, Nalidicic Acid], the “Antibiotic Susceptibility testing” value in experiment [2] (strain S1) is “R”; in experiment [2] (strain S2), “R”; in experiment [2] (strain S3), “R”; in experiment [3] (strain ST1) it was “R”; in experiment [3] (strain ST2), “R”; in experiment [3] (strain ST3), “I”.
Turning to `CC1(C)S[C@@H]2[C@H](NC(=O)[C@H](N)c3ccccc3)C(=O)N2[C@H]1C(=O)O` [AMP], the “Antibiotic Susceptibility testing” value (in the experiment on EAEC strains [1] (strain E1); in the experiment on EAEC strains [1] (strain E2); with EAEC strains [1] (strain E3); in experiment [2] (strain S1); in experiment [2] (strain S2); in experiment [2] (strain S3)) was “R” each time. Besides, the “Antibiotic Susceptibility testing” value in experiment [3] (strain ST1), in experiment [3] (strain ST2) and in experiment [3] (strain ST3) was “R” in each case. Moreover, the MIC against EAEC strains [4] (strain E1), in the experiment on EAEC strains [4] (strain E2) and in the experiment with EAEC strains [4] (strain E3) was over 240 µM throughout.
As for `CO/N=C(\C(=O)N[C@@H]1C(=O)N2C(C(=O)[O-])=C(C[N+]3(C)CCCC3)CS[C@H]12)c1csc(N)n1` [CPM], the “Antibiotic Susceptibility testing” value in experiment [2] (strain S1), in experiment [2] (strain S2), in experiment [2] (strain S3), in experiment [3] (strain ST1), in experiment [3] (strain ST2) and in experiment [3] (strain ST3) was “S” throughout.
`Nc1ccc(S(=O)(=O)Nc2ncccn2)cc1` [SD, Sulfadiazine]: the “Antibiotic Susceptibility testing” value in experiment [2] was “R”.
As to `Cc1cc(NS(=O)(=O)c2ccc(N)cc2)no1` [SXT, Sulfamethoxazole], the figures for the “Antibiotic Susceptibility testing” value with EAEC strains [1] (strain E1), with EAEC strains [1] (strain E2) and with EAEC strains [1] (strain E3) were “R”, “S” and “R”, respectively.

These data come from paper PMC8286599 (Gut Pathogens, 2021).
